Earlier results in PMC6499206, “Quantification of Volatile Metabolites Derived From Garlic (Allium sativum) in Human Urine” (Frontiers in Nutrition, 2019).

Tested on: cardiac hypertrophy
Design: method as in PMID 28194108
Settings: rats; by increasing Na+/K+-ATPase; cited from earlier work

SMILES	effect on cardiac hypertrophy
C=CCSC [AMS, allyl methyl sulfide]	attenuated cardiac hypertrophy
C=CC[S+](C)[O-] (centres unmarked) [AMSO, allyl methyl sulfoxide]	attenuated cardiac hypertrophy
